Measured values published in patent publication US20240307372A1, “COMPOSITIONS AND METHODS TO IMPROVE BENEFIT OF SUBOPTIMALLY ADMINISTERED THERAPEUCTICS FOR THE TREATMENT OF BENIGN AND NEOPLASTIC DISEASES, INFECTIONS, INFLAMMATORY, METABOLIC AND IMMUNOLOGIAL DISEASES” (priority 2023, published 2024).

Biological target: T1, CAMKII gamma (Homo sapiens, UniProt Q13555)
T1 construct: purchased Promega V3531
Assay: CAMKII gamma kinase activity, ADP Glo (Promega)
Assay type: biochemical
Details: 10 uM ATP
Protocol: An enzymatic study was conducted to evaluate the inhibition of CAMKII gamma by ES-3000 (Tetrandrine). CAMKII gamma kinase activity was measured using […] purchased from Promega following the Promega protocol. CAMKII enzyme system purchased from Promega (V3531). ADP Glo was used for detection. Assay optimized for linearity of protein and time. Conditions for inhibitor screening 25 ng CAMKII, 20 min. incubations, inhibitor or DMSO (5%) at RT in 20 uL total volume. Inhibitor, ATP (10 or 50 uM), substrates and buffer added to tubes and reactions started with enzyme. […] Reactions terminated at 20 min. by adding ADP Glo reaction following manufactures instructions. All reactions were done in duplicate. Calculations of percent (%) inhibition determined by dividing the mean activity at each condition by the mean of the DMSO control times 100.

T1 sequence (Q13555 whole entry): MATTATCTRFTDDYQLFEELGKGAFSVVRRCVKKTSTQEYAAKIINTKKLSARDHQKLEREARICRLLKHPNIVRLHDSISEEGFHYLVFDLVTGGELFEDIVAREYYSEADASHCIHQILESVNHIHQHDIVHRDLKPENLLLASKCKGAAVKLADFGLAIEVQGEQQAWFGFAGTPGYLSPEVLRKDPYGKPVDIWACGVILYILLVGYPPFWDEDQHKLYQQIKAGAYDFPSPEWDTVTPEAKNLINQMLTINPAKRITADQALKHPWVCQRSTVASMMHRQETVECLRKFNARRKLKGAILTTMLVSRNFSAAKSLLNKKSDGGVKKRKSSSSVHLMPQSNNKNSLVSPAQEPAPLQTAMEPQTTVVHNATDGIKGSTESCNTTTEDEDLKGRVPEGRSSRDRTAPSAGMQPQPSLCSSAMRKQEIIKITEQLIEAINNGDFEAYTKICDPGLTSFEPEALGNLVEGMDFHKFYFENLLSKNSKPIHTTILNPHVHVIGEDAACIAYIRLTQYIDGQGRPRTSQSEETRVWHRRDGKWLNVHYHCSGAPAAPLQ

- % inhibition (30 uM): 37%
- inhibition at 30 µM (30 uM): 36.7%
- kinase activity, % of DMSO control (30 uM): 63%
- % inhibition (100 uM): 47%
- inhibition at 100 µM (100 uM): 47.1%
- kinase activity, % of DMSO control (100 uM): 53%
- % inhibition (250 uM): 46%
- inhibition at 250 µM (250 uM): 46.3%
- kinase activity, % of DMSO control (250 uM): 54%
SMILES: COc1cc2c3cc1Oc1c(OC)c(OC)cc4c1[C@@H](Cc1ccc(O)c(c1)Oc1ccc(cc1)C[C@@H]3N(C)CC2)N(C)CC4 [berbamine, reference compound]
